Source: US7741303B2, “Stimulation of cellular regeneration and differentiation in the inner ear” (Sound Pharmaceuticals Incorporated, priority 1998, dated 2010)

Key:
guinea pig JH4 cells = experiment: Reversal of serum-deprivation growth arrest, BrdU labeling; format: cell-based
Source text: Cells were counted under fluorescence microscopy. The combination of lipids and p27^kip1. AS reversed growth arrest to 40% of that seen with 10% FBS stimulation (p<0.0001). (+) FBS; (−) no FBS; (AS) antisense oligonucleotide; (lipid) lipofection.
Cultures of cell lines were established that are responsive to p27^Kip1 antisense oligonucleotides (ON) during the period of serum withdrawal and growth arrest. These cultures include a guinea pig fibroblast line (JH4). Lipofection of the 16 mer antisense ON (having the nucleic acid sequence set forth in SEQ ID NO:20) reversed growth arrest in the JH4 cell line to over 40% of normal.

[1] = tested on: hair cells of organ of Corti explant; experiment: Hair cell lesioning of organ of Corti cultures with neomycin; format: cell-based, mouse; details: 1 mM neomycin, organotypic cultures, 48 h, calbindin immunoreactivity and cross-section analysis
Experimental: To test whether inhibition of the p27^Kip1 gene product in p27^Kip1 +/+ cochlea would allow non-mitotic supporting cells to proliferate, wild type organ of Corti explants (P7-P10, at age of hearing onset) were treated with p27^Kip1 antisense oligonucleotides (ONs). Explant cultures were established by dissecting the organ of Corti from the cochlea, removing the tectorial membrane and adhering the organ of Corti to a glass slide coated with Cell-tak and maintained at 37° C. in a 5% CO2 environment. The explant was then exposed to an ototoxic antibiotic (1 mM neomycin sulfate) for 48 h which killed >95% of the HCs (Kil, J., et al., ARO abs. 21:672 (1998)). […] Some of these living cultures were examined under fluorescence to detect the presence of FITC conjugated antisense ON. […]
An aminoglycoside antibiotic lesion of the hair-cells is then be combined with subsequent lipofection. […] Unlike cultures derived from neonatal mice, the two-week old mouse which has developed auditory function is more easily affected by this concentration of neomycin resulting in a greater than 95% loss of hair-cells as determined by calbindin immunoreactivities and plastic cross-section analysis. […] This may necessitate the use of a commercially available GFP antibody (Clonetech) to enhance the fluorescence of lipofected cells.

[2] = tested on: hair cells of organ of Corti explant; details: 1 mM neomycin sulfate for 48 h; P7-P10 wild type explants; cited from earlier work
organ of Corti = experiment: BrdU-labeled cells in the organ of Corti of p27^Kip1 +/+, +/−, −/− mice after amikacin lesioning; format: in vivo; details: for number of BrdU labeled cells in the organ of Corti: 1000 μm length of sensory epithelium, apical half of cochlea, ±s.d.
Experimental: To determine whether auditory hair cells were being produced after the onset of hearing at postnatal day 10, two-week old p27^Kip1 −/−, +/−, +/+ mice (P10-12) received three daily systemic injections of bromodeoxyuridine (BrdU; 30 mg/kg/s.c), a nucleotide analog which is incorporated into proliferating cells during S phase. Mice were then permitted to recover for two-days or two-weeks without further injections. BrdU positive HCs were identified with immunocytochemistry using light and fluorescence microscopy. Cochlea were also labeled with antibodies against myosin-VI and myosin-VIIa. In two-week old p27^Kip1 −/− cochlea that were recovered for 2d after the last injection, no BrdU/myosin-VIIa positive cells were observed among the BrdU positive cells. However, in four-week old p27^Kip1 −/− cochlea that were recovered for 14 days after the last injection, BrdU/myosin-VIIa positive HCs were observed. Most of those double labeled were IHCs. This qualitative finding is similar to our quantitative assessments of IHCs and OHCs numbers. p27^Kip1 +/−, +/+ mice were completely devoid of BrdU positive cells at 2d and 14d of recovery. […] Counts were performed on a 1000 μm length of sensory epithelium taken in the apical half of the cochlea (±s.d.). Proliferation in the BrdU groups were compared across +/+, +/−and −/−. Proliferation in the BrdU/Amikacin group was compared with that in the BrdU only group of the same genotype. Statistical significance was determined using ANOVA.
To ascertain whether auditory HCs could be regenerated, HCs were lesioned using systemic injections of amikacin sulfate (P7-P12) and then injected with BrdU (P10-12). Mice were sacrificed either 2 d or 14 d after the last injection. The effects of an amikacin lesioning were at least two-fold. First, in both p27^Kip1 −/− and +/− mice, the number of BrdU positive cells increased following amikacin/BrdU vs BrdU alone treatment. […] Evidence of HC regeneration was confirmed by sectioning the labeled cochlea. Second, a greater number of BrdU positive HCs were observed following amikacin lesioning in p27^Kip1 −/− cochlea. The majority of the BrdU positive HCs appeared in the regions of the cochlea where the amikacin sulfate had injured or killed HCs (in the basal half of the cochlea).

[3] = tested on: utricular, saccular and cristae sensory epithelium; experiment: BrdU-labeled cells in the vestibular organs of p27^Kip1 mice after amikacin/BrdU; format: in vivo; details: for number of BrdU labeled cells, utricle: BrdU/Amikacin (500 mg/kg/d s.c., P7-P12)
Experimental: To determine whether p27^Kip1 plays a similar role in the peripheral vestibular system, the proliferative capacity of the utricle, saccule and cristae of p27^Kip1 +/−, and +/+ mice was examined. Mice (P7-P12) received systemic injections of amikacin sulfate (500 mg/kg/d/s.c) for six consecutive days that were combined with injections of the replication marker, bromodeoxyuridine (BrdU; 30 mg/kg/d/s.c) between P10-P12. Mice were also injected with BrdU alone in a similar fashion. Mice were then sacrificed 14 d later and the vestibular sensory organs were fixed, dissected and processed for BrdU immunocytochemistry. BrdU positive nuclei were counted from whole mounts using light microscopy and Nomarski optics. Selected organs were further processed for cross section analysis.
BrdU positive HCs were also observed in both otolithic organs. Most of these regenerated HC appeared as type I HCs in that they were contacted by a calyx. […] In p27^Kip1 +/+ mice, no BrdU positive nuclei in either the saccule or utricle were observed after amikacin/BrdU or BrdU alone. […] Counts were performed from whole utricular, saccular and cristae sensory epithelium (±s.d.). In the BrdU group, statistical significance was determined by comparing proliferation levels in the same sensory organ across +/+, +/− and −/−. In the BrdU/Amikacin group, statistical significance was determined by comparing proliferation levels in the same sensory organ of the same genotype. Statistical significance was determined using ANOVA.

auditory function = experiment: Auditory brainstem response (ABR) threshold after amikacin sulfate treatment; format: in vivo, mice; details: p27 heterozygotes, two and four weeks after amikacin sulfate treatment; p<0.001
Experimental: Experimental animals were treated the same as the mice described in the experiments reported in Table 2 herein, except that, in the present example, there was an additional recovery time point at four weeks after amikacin treatment. Auditory function was measured using the auditory brainstem response (ABR) using subcutaneous recording electrodes placed on three head points in Isofluorane anesthetized mice. The sound intensity threshold was determined by presenting single frequencies as different sound intensities (intensity measured in decibels). The higher the tone intensity that is required to elicit the ABR, the higher the auditory threshold, i.e., the worse the auditory function.

[4] = tested on: supporting cells of wild type organ of Corti explants; experiment: p27^Kip1 antisense oligonucleotide treatment of neomycin-lesioned organ of Corti explants, BrdU immunocytochemistry; format: cell-based, mouse
Experimental: To test whether inhibition of the p27^Kip1 gene product in p27^Kip1 +/+ cochlea would allow non-mitotic supporting cells to proliferate, wild type organ of Corti explants (P7-P10, at age of hearing onset) were treated with p27^Kip1 antisense oligonucleotides (ONs). Explant cultures were established by dissecting the organ of Corti from the cochlea, removing the tectorial membrane and adhering the organ of Corti to a glass slide coated with Cell-tak and maintained at 37° C. in a 5% CO2 environment. The explant was then exposed to an ototoxic antibiotic (1 mM neomycin sulfate) for 48 h which killed >95% of the HCs (Kil, J., et al., ARO abs. 21:672 (1998)). The neomycin containing media was then removed and p27^Kip1 antisense oligonucleotides (Ons) (40 nM) were administered using a cationic lipid (lipofection) for a period of 24-48 hr. Some of these living cultures were examined under fluorescence to detect the presence of FITC conjugated antisense ON.
FITC-positive supporting cells were detected in 18-24 h and increased in number and fluorescent intensity between 24-48 h. Cultures were aldehyde fixed and processed for BrdU immunocytochemistry. […] BrdU-positive doublets appeared in antisense ON treated cultures that were recovered for an additional 24 hr without antisense ONs. […] Lipofection-only treated cultures contained very low levels of BrdU-labeled supporting cells.

[5] = p27^Kip1 +/+ mice, BrdU/Amikacin, 14 d recovery, whole sensory epithelium, ±s.d.
[6] = p27^Kip1 +/− mice, BrdU/Amikacin, 14 d recovery, whole sensory epithelium, ±s.d.
[7] = p27^Kip1 −/− mice, BrdU/Amikacin, 14 d recovery, whole sensory epithelium, ±s.d.

## 16 mer antisense ON: 16 mer p27^Kip1 antisense ON having the nucleic acid sequence set forth in SEQ ID NO:20 (antisense TGGCTCTCCTGCGCC; listed as DNA, chemistry not given here)
Guinea pig JH4 cells; lipofection, serum withdrawal
  reversal of growth arrest: over 40 % of normal
Guinea pig JH4 cells; serum deprivation 24 hours, BrdU pulse last 4 hours, combination of lipids and AS, p<0.0001
  reversal of growth arrest (BrdU-labeled cells): 40 % of that seen with 10% FBS stimulation

## neomycin sulfate
[1]
  loss of hair cells: greater than 95%
[1]; listed as neomycin
  loss of hair cells: 95%
[2]
  HCs killed: > 95%

## NCC[C@H](O)C(=O)N[C@@H]1C[C@H](N)[C@@H](O[C@H]2O[C@H](CN)[C@@H](O)[C@H](O)[C@H]2O)[C@H](O)[C@H]1O[C@H]1O[C@H](CO)[C@@H](O)[C@H](N)[C@H]1O.O=S(=O)(O)O.O=S(=O)(O)O [Amikacin, amikacin sulfate]
Organ of Corti; cochlea of both p27^Kip1 −/− and +/− mice
  number of BrdU positive cells following amikacin/BrdU vs BrdU alone treatment: increased
Organ of Corti; p27^Kip1 +/+ mice, BrdU/Amikacin + 2d recovery
  number of BrdU labeled cells in the organ of Corti: 0.0 ± 0.0
Organ of Corti; p27^Kip1 +/+ mice, BrdU/Amikacin + 14d recovery
  number of BrdU labeled cells in the organ of Corti: 0.0 ± 0.0
Organ of Corti; p27^Kip1 +/− mice, BrdU/Amikacin + 2d recovery
  number of BrdU labeled cells in the organ of Corti: 4.7 ± 7.6
Organ of Corti; p27^Kip1 +/− mice, BrdU/Amikacin + 14d recovery
  number of BrdU labeled cells in the organ of Corti: 10.5 ± 12.0
Organ of Corti; p27^Kip1 −/− mice, BrdU/Amikacin + 2d recovery
  number of BrdU labeled cells in the organ of Corti: 96.3 ± 9.5
Organ of Corti; p27^Kip1 −/− mice, BrdU/Amikacin + 14d recovery
  number of BrdU labeled cells in the organ of Corti: 137.4 ± 17.0
Organ of Corti; p27 heterozygotes of Table 2, amikacin treated
  p27 heterozygotes showing evidence of inner cell proliferative regeneration (BrdU-labeling and morphologic criteria): five out of ten
Organ of Corti; wt cochlea following amikacin/BrdU
  BrdU positive cells in wt cochlea: No BrdU positive cells were observed
[3]; p27^Kip1 +/+ mice, 14 d recovery, whole sensory epithelium, ±s.d.
  number of BrdU labeled cells, utricle: 0.0 ± 0.0
[3]; [5]
  number of BrdU labeled cells, cristae: 0.0 ± 0.0
  number of BrdU labeled cells, saccule: 0.0 ± 0.0
[3]; p27^Kip1 +/− mice
  proliferation in the saccule or utricle after combined amikacin/BrdU treatment: a very low level of proliferation was induced
[3]; p27^Kip1 +/− mice, 14 d recovery, whole sensory epithelium, ±s.d.
  number of BrdU labeled cells, utricle: 0.4 ± 0.7
[3]; [6]
  number of BrdU labeled cells, cristae: 0.0 ± 0.0
  number of BrdU labeled cells, saccule: 1.6 ± 1.9
[3]; p27^Kip1 −/− mice, 14 d recovery, whole sensory epithelium, ±s.d.
  number of BrdU labeled cells, utricle: 45.5 ± 19.2
[3]; [7]
  number of BrdU labeled cells, cristae (sub-head printed as utricle): 0.0 ± 0.0
  number of BrdU labeled cells, saccule: 51.8 ± 15.3
[3]; p27^Kip1 −/− mice, saccule and utricle (both organs), versus BrdU only
  increase in the number of BrdU positive cells after combined amikacin/BrdU treatment: 40 fold
Auditory function
  auditory improvement (ABR threshold): five out of eight

## antisense ON: p27^Kip1 antisense oligonucleotides administered using a cationic lipid (lipofection) to organ of Corti explants (antisense TGGCTCTCCTGCGCC; FITC conjugated, delivered with cationic lipid, further chemistry not given here)
[4]; 40 nM antisense ON by lipofection, after 24 h of treatment, after 1 mM neomycin 48 h
  BrdU-positive supporting cells: appeared in most cochlear cultures
[4]; FITC conjugated antisense ON, lipofection, living cultures under fluorescence
  time at which FITC-positive supporting cells were detected: 18 to 24 h
[4]; antisense ON treated cultures recovered for an additional 24 hr without antisense ONs
  BrdU-positive doublets: appeared
